Here are results for 20 molecules from publication PMC10077450 (ACS Omega, 2023).

One experiment addresses α-glucosidase (Saccharomyces cerevisiae, UniProt P53341). The conditions noted are these: for activity against α-glucosidase enzyme (in words): compared with acarbose.
Experiment [1] concerns the target butyryl cholinesterase (BChE) (Homo sapiens, UniProt P06276). The experiment can be described thus: butyryl cholinesterase inhibition assay. Format: biochemical. Particulars: for inhibition at 500 µM: read-out: BChE inhibition (%) at 0.5 mM; for activity against BChE enzyme (in words): compared with eserine.

Molecules are shown by their SMILES. “Also recorded” adds a separate entry of the source. Marks after values point to notes of the source that are not given here.

Chain of butyryl cholinesterase (BChE) (P06276 29-602, species assumed): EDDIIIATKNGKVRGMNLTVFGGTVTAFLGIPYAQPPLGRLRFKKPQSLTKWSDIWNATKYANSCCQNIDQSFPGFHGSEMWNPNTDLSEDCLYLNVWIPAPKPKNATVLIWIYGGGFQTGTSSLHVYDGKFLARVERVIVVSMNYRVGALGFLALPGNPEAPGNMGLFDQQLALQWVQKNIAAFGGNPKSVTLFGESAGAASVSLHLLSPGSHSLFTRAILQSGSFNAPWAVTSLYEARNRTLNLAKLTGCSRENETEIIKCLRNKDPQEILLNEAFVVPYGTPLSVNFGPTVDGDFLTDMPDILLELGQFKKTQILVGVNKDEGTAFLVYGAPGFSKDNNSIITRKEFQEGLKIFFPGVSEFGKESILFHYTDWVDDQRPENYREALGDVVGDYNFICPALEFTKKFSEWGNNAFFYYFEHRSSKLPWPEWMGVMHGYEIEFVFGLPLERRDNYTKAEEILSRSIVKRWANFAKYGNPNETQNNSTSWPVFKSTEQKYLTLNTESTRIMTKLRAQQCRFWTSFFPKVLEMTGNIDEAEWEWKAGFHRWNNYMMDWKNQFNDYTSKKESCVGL
Chain of α-glucosidase (P53341 whole entry): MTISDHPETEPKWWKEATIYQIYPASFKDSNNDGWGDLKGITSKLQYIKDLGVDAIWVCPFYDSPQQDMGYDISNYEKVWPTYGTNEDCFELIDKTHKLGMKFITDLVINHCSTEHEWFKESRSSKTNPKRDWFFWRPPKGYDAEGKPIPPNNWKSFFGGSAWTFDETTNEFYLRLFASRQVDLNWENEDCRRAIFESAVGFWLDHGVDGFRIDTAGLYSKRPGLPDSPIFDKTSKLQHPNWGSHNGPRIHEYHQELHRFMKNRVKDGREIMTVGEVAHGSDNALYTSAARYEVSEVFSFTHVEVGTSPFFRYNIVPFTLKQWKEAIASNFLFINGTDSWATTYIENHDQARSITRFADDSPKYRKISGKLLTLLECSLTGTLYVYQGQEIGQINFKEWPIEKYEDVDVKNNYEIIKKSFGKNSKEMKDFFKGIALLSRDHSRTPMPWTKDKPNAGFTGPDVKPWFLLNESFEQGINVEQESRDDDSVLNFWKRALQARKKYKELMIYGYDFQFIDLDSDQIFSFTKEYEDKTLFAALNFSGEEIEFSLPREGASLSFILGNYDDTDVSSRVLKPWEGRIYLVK

`O=C(CSc1nnc(C2CCCN(S(=O)(=O)c3ccccc3)C2)o1)NC1CCCCC1` (stereo not shown) [7p, N-Cyclohexyl-2-{5-[1-(phenylsulfonyl)piperidin-3-yl]-1,3,4-oxadiazol-2-ylthio}acetamide]: the “activity against α-glucosidase enzyme (in words)” value at α-glucosidase is given as “least activity”. Also, the inhibition – broadly, the drop in the measured response relative to a control, in per cent – at 500 µM in experiment [1] was determined as 26.5 ± 0.39%.
Consider `Cc1cccc(C)c1NC(=O)CSc1nnc(C2CCCN(S(=O)(=O)c3ccccc3)C2)o1` (stereo not shown) [7d, N-(2,6-Dimethylphenyl)-2-{5-[1-(phenylsulfonyl)piperidin-3-yl]-1,3,4-oxadiazol-2-ylthio}acetamide], for which the “activity against α-glucosidase enzyme (in words)” value on α-glucosidase was “least activity”. Moreover, the inhibition at 500 µM in experiment [1] worked out at 48.51 ± 0.15%.
For `COc1ccccc1NC(=O)CSc1nnc(C2CCCN(S(=O)(=O)c3ccccc3)C2)o1` (stereo not shown) [7q, N-(2-Methoxyphenyl)-2-{5-[1-(phenylsulfonyl)piperidin-3-yl]-1,3,4-oxadiazol-2-ylthio}acetamide], in experiment [1], the inhibition at 500 µM was found to be 36.32 ± 0.16%.
In the case of `Cc1ccc(NC(=O)CSc2nnc(C3CCCN(S(=O)(=O)c4ccccc4)C3)o2)c(C)c1` (stereo not shown) [7b, N-(2,4-Dimethylphenyl)-2-{5-[1-(phenylsulfonyl)piperidin-3-yl]-1,3,4-oxadiazol-2-ylthio}acetamide], in experiment [1], the IC50 (usually the point on the concentration scale where inhibition reaches its midpoint) came out at 283.3 ± 0.17 µM, the “activity against BChE enzyme (in words)” value is reported as “least active; also recorded: BChE inhibitors” and the inhibition at 500 µM stood at 76.51 ± 0.44%.
In the case of `Cc1cc(C)cc(NC(=O)CSc2nnc(C3CCCN(S(=O)(=O)c4ccccc4)C3)o2)c1` (stereo not shown) [7e, N-(3,5-Dimethylphenyl)-2-{5-[1-(phenylsulfonyl)piperidin-3-yl]-1,3,4-oxadiazol-2-ylthio}acetamide], the “activity against α-glucosidase enzyme (in words)” value at α-glucosidase is on record as “most active; also recorded: comparable activity to that of reference”. For the same molecule, in experiment [1], the IC50 worked out at 375.4 ± 0.12 µM, the “activity against BChE enzyme (in words)” value was “least active; also recorded: BChE inhibitors” and the inhibition at 500 µM was found to be 66.82 ± 0.32%.
As to `Cc1ccc(C)c(NC(=O)CSc2nnc(C3CCCN(S(=O)(=O)c4ccccc4)C3)o2)c1` (stereo not shown) [7c, N-(2,5-Dimethylphenyl)-2-{5-[1-(phenylsulfonyl)piperidin-3-yl]-1,3,4-oxadiazol-2-ylthio}acetamide], in experiment [1], the inhibition at 500 µM worked out at 40.76 ± 0.27%.
Regarding `CCc1ccccc1NC(=O)CSc1nnc(C2CCCN(S(=O)(=O)c3ccccc3)C2)o1` (stereo not shown) [7k, N-(2-Ethylphenyl)-2-{5-[1-(phenylsulfonyl)piperidin-3-yl]-1,3,4-oxadiazol-2-ylthio}acetamide], on α-glucosidase, the “activity against α-glucosidase enzyme (in words)” value is “least activity”. Further, in experiment [1], the inhibition at 500 µM turned out to be 44.24 ± 0.32%.
For the molecule `COC(=O)c1ccccc1NC(=O)CSc1nnc(C2CCCN(S(=O)(=O)c3ccccc3)C2)o1` (stereo not shown) [7h, Methyl 2-(2-(5-(1-(Phenylsulfonyl)piperidin-3-yl)-1,3,4-oxadiazol-2-ylthio)acetamido)benzoate], the inhibition at 500 µM in experiment [1] worked out at 35.52 ± 0.23%.
For the molecule `O=C(CSc1nnc(C2CCCN(S(=O)(=O)c3ccccc3)C2)o1)NCc1ccccc1` (stereo not shown) [7r, N-Benzyl-2-{5-[1-(phenylsulfonyl)piperidin-3-yl]-1,3,4-oxadiazol-2-ylthio}acetamide], on α-glucosidase, the “activity against α-glucosidase enzyme (in words)” value is “least activity”. In experiment [1], the inhibition at 500 µM turned out to be 37.7 ± 0.48%.
Taken in the same sequence, the figures for `COc1ccc(Cl)cc1NC(=O)CSc1nnc(C2CCCN(S(=O)(=O)c3ccccc3)C2)o1` (stereo not shown) [7i, N-(5-Chloro-2-methoxyphenyl)-2-{5-[1-(phenylsulfonyl)piperidin-3-yl]-1,3,4-oxadiazol-2-ylthio}acetamide] were “second most active” and 38.81 ± 0.17%.
`CCc1cccc(C)c1NC(=O)CSc1nnc(C2CCCN(S(=O)(=O)c3ccccc3)C2)o1` (stereo not shown) [7o, N-(2-Ethyl-6-methylphenyl)-2-{5-[1-(phenylsulfonyl)piperidin-3-yl]-1,3,4-oxadiazol-2-ylthio}acetamide]: in experiment [1], the inhibition at 500 µM is 38.31 ± 0.29%.
For `O=C(CSc1nnc(C2CCCN(S(=O)(=O)c3ccccc3)C2)o1)NCCc1ccccc1` (stereo not shown) [7j, N-Phenethyl-2-{5-[1-(phenylsulfonyl)piperidin-3-yl]-1,3,4-oxadiazol-2-ylthio}acetamide], in experiment [1], the midpoint of inhibition, the IC50, lay at 12.15 ± 0.09 µM; the “activity against BChE enzyme (in words)” value was “highest inhibition potential; also recorded: most active”; the inhibition at 500 µM was 97.93 ± 0.38%.
As for `Cc1ccccc1NC(=O)CSc1nnc(C2CCCN(S(=O)(=O)c3ccccc3)C2)o1` (stereo not shown) [7f, 2-{5-[1-(Phenylsulfonyl)piperidin-3-yl]-1,3,4-oxadiazol-2-ylthio}-N-o-tolylacetamide], the inhibition at 500 µM in experiment [1] was determined as 47.23 ± 0.14%.
In the case of `Cc1cccc([N+](=O)[O-])c1NC(=O)CSc1nnc(C2CCCN(S(=O)(=O)c3ccccc3)C2)o1` (stereo not shown) [7s, N-(2-Methyl-6-nitrophenyl)-2-{5-[1-(phenylsulfonyl)piperidin-3-yl]-1,3,4-oxadiazol-2-ylthio}acetamide], in experiment [1], the midpoint of inhibition, the IC50, lay at 123.3 ± 0.15 µM; the “activity against BChE enzyme (in words)” value is reported as “moderately high inhibition potential”; the inhibition at 500 µM was 67.19 ± 0.39%.
In the same order, the values of `CCOc1ccc(NC(=O)CSc2nnc(C3CCCN(S(=O)(=O)c4ccccc4)C3)o2)cc1` (stereo not shown) [7m, N-(4-Ethoxyphenyl)-2-{5-[1-(phenylsulfonyl)piperidin-3-yl]-1,3,4-oxadiazol-2-ylthio}acetamide] are 328.1 ± 0.18 µM, “least active; also recorded: BChE inhibitors” and 72.41 ± 0.17%.
`Cc1cccc(NC(=O)CSc2nnc(C3CCCN(S(=O)(=O)c4ccccc4)C3)o2)c1C` (stereo not shown) [7a, N-(2,3-Dimethylphenyl)-2-{5-[1-(phenylsulfonyl)piperidin-3-yl]-1,3,4-oxadiazol-2-ylthio}acetamide]: in experiment [1], the midpoint of inhibition, the IC50, lay at 284.5 ± 0.13 µM; the “activity against BChE enzyme (in words)” value is reported as “least active; also recorded: BChE inhibitors”; the inhibition at 500 µM was found to be 75.32 ± 0.35%.
On to `C[C@H]1O[C@H](O[C@H]2[C@H](O)[C@@H](O)[C@@H](O[C@H]3[C@H](O)[C@@H](O)C(O)O[C@@H]3CO)O[C@@H]2CO)[C@H](O)[C@@H](O)[C@@H]1N[C@H]1C=C(CO)[C@@H](O)[C@H](O)[C@H]1O` (stereo partly shown) [acarbose, reference compound], for which the “α-glucosidase inhibition (%) at 0.5 mM” value on α-glucosidase (0.5 mM, mean ± SEM, triplicate) was 92.23±0.14^a %.
For the molecule `CCc1ccc(NC(=O)CSc2nnc(C3CCCN(S(=O)(=O)c4ccccc4)C3)o2)cc1` (stereo not shown) [7l, N-(4-Ethylphenyl)-2-{5-[1-(phenylsulfonyl)piperidin-3-yl]-1,3,4-oxadiazol-2-ylthio}acetamide], in experiment [1], the IC50 turned out to be 274.6 ± 0.13 µM, the “activity against BChE enzyme (in words)” value is listed as “least active; also recorded: BChE inhibitors” and the inhibition at 500 µM was 93.71 ± 0.28%.
For the molecule `Cc1ccc(NC(=O)CSc2nnc(C3CCCN(S(=O)(=O)c4ccccc4)C3)o2)cc1` (stereo not shown) [7g, 2-{5-[1-(Phenylsulfonyl)piperidin-3-yl]-1,3,4-oxadiazol-2-ylthio}-N-p-tolylacetamide], the inhibition at 500 µM in experiment [1] was found to be 46.75 ± 0.18%.
As to `CCOc1ccccc1NC(=O)CSc1nnc(C2CCCN(S(=O)(=O)c3ccccc3)C2)o1` (stereo not shown) [7n, N-(2-Ethoxyphenyl)-2-{5-[1-(phenylsulfonyl)piperidin-3-yl]-1,3,4-oxadiazol-2-ylthio}acetamide], the inhibition at 500 µM in experiment [1] worked out at 43.72 ± 0.15%.
